The values below are quoted from earlier work in patent publication US20180055935A1, “METHOD FOR THE PRODUCTION OF A FORMULATION OF A HYPERICIN SALT” (Sanochemia Pharmazeutika AG, priority 2015, published 2018).

The structures appear in SMILES notation.

The test system of this data set is bladder carcinoma. The note with it: hypericin 30 μM using polyethylene glycol, 595 nm, 25 up to 50 mW/cm^2.

In the case of `Cc1cc(O)c2c(=O)c3c(O)cc(O)c4c5c(O)cc(O)c6c(=O)c7c(O)cc(C)c8c1c2c(c34)c(c78)c65` [hypericin, 1,3,4,6,8,13-hexahydroxy-10, 11-dimethylphenanthro (1,10,9,8-opqra)perylene-7, 14-dione], the tumor cells killed result is reported as “up to 98%”.
